{"source": "patent USRE38132E1", "about": "“Phenylpyrrolidines, phenylimidazolidines,3-phenyl-1,3-oxizolidines and 3-phenyl-1,3-thiazolidines and their use in the treatment of inflammatory disease” (Boehringer Ingelheim Pharmaceuticals, Inc., priority 1997, dated 2003)", "key": {"[1]": {"system": "LFA-1 dependent aggregation of JY cells", "assay": "JY cell homotypic aggregation assay (PMA-stimulated)", "format": "cell-based, human", "conditions": "Homo sapiens", "outline": "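JY cells (2·10^5 cells/well) in RPMI 1640 with 10% FCS incubated with test compound and […]; cells settle spontaneously and aggregation is scored at various time points. Values are concentrations (μM) giving 50% inhibition of binding.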"}, "[2]": {"system": "human MLR, peripheral blood mononuclear cells", "assay": "Inhibition of the mixed lymphocyte reaction (MLR), tritiated thymidine uptake", "format": "cell-based", "parameters": "key: Data are reported as “+” or “−” at a given concentration (in μM); Data are reported as “+” or “−” at a given concentration (in μM)", "experimental": "Assay to Determine Inhibition the Mixed Lymphocyte Reaction\nAs discussed above, ICAM-1 is necessary for effective cellular interactions during an immune response mediated through LFA-1-dependent cell adhesion. When lymphocytes from two unrelated individuals are cultured together, blast transformation and cell proliferation of the lymphocytes are observed. This response is known as a mixed lymphocyte reaction (MLR) and is analogous to the response of lymphocytes to the 10 addition of antigens or mitogens (Immunology: The Science of Self-Nonself Discrimination; Klein, J., Ed.; John Wiley & Sons: NY, 1982, pp 453-458).\nThis assay protocol is used to determine the effect of a test compound on the human MLR.\nDescription of Assay Protocol:\nPeripheral blood is obtained from normal, healthy donors by venipuncture. The blood is collected in heparinized tubes and diluted 1:1 at room temperature with Puck's G (GIBCO) balanced salt solution (BSS). The blood mixture (20 mL) is layered over 15 mL of a Ficoll/Hypaque density gradient (Pharmacia, density=1.078, room temperature) and centrifuged at 1000·g for 20 minutes. The interface is then collected and washed 3 times in Puck's G. The cells are counted on a hemocytometer and resuspended in RPMI 1640 culture medium (GIBCO) containing 0.5% of gentamicin, 1 mM L-glutamine (GICO) and 5% heat inactivated (56° C., 30 min) human AB sera (Flow Laboratories) (hereafter referred to as RPMI-culture medium).\nStimulator cells (cells that have been treated with irradiation so that they are unable to proliferate) from a separate donor are cultured with the responder cells at the same concentration. Test compound is added to wells at various concentrations. The total volume per culture is 0.2 mL. Controls include compound vehicle alone (DMSO), responder cells alone, and stimulator cells alone. The culture plates are incubated at 37° C. in a 5% CO2-humidified air atmosphere for 5 days.\nThe wells are pulsed with 0.5 μCi of tritiated thymidine (^3HT) (New England Nuclear) for the last 18 h of culture. In some cases a two-way MLR can be performed. The protocol is the same except that the second donor's cells are not inactivated by irradiation.\nThe cells are harvested onto glass fiber filters using an automated multiple sample harvester (Skatron, Norway), and rinsed with water and methanol. The filters are oven dried and counted in Aquasol in a Beckman (LS-3801) liquid scintillation counter.\nData are reported as “+” or “−” at a given concentration (in μM)."}}}
{"smiles": "C[C@]1(Cc2ccc(Br)cc2)NC(=O)N(c2cc(Cl)cc(Cl)c2)C1=O", "note": "[Example 29]", "values": [{"measurement": "IC50", "setting": "[1]", "value": 0.1, "unit": "µM"}, {"measurement": "Mixed Lymphocyte Reaction MLR +/−", "setting": "[2]; at 50 μM", "value": "+(50)"}, {"measurement": "Cellular Toxicity Assay MTT LD50", "setting": "SKW3 cells", "value": "63 to 125", "unit": "µM"}]}
{"smiles": "CC(=O)N1C(=O)N(c2cc(Cl)cc(Cl)c2)C(=O)[C@@]1(C)Cc1ccc(Br)cc1", "note": "[Example 102]", "values": [{"measurement": "IC50", "setting": "[1]", "value": 1.3, "unit": "µM"}, {"measurement": "Mixed Lymphocyte Reaction MLR +/−", "setting": "[2]; at 25 μM", "value": "+(25)"}, {"measurement": "Cellular Toxicity Assay MTT LD50", "setting": "SKW3 cells", "value": ">400", "unit": "µM"}]}
